We go through two molecules from US20170246166A1, “1,2-BENZOTHIAZOLE COMPOUNDS FOR THE TREATMENT OF KIDNEY DISORDERS” (priority 2014, published 2017).

Assay [1] has as its system PKC. Description: Cell-based assay of PKC inhibition (PKC substrate phosphorylation in THP-1 cells). The note with it: human THP-1 cells, 1.5 h compound, then 20 nM PMA for 30 min; read-out: absolute IC50, PKC substrate phosphorylation. How it is done:
The purpose of this assay is to test the inhibitory effects of a test compound on PKC in a cell-based system by measuring the level of PKC substrate phosphorylation.
Staurosporin may be used as a positive control. It is prepared in DMSO to make up a […] solution and then serially diluted in plain RPMI 1640 culture medium (10 μM-0.0005 μM) to obtain a ten-point dilution curve. Test compounds are prepared in the same manner.
THP-1 cells (human macrophage cell line) are obtained from ATCC (ATCC TIB-202 lot 4028542). The cells are cultured in 96-well plates coated with poly-d-lysine (Becton Dickinson) with seeding density of 4000 cells/well in RPMI 1640 culture medium (Gibco) with 1% fetal bovine serum (Gibco). […]
After the incubation, the cells are first fixed in the Prefer fixative (ANATECH LTD) for 30 min at room temperature. […] Plates are scanned with an ACUMEN EXPLORER™ Laser-scanning fluorescence microplate cytometer (TTP LABTECH LTD), with 488 nm laser excitation to detect emission fluorescence at 655 nm-705 nm (emission of DNA bound propidium iodide) for cell counting/well, and emission of 505 nm-530 nm fluorescence of antibody binding to phosphorylated PKC substrates in cells. The main assay output is a ratio of total fluorescence of phosphorylated PKC substrates to total cell number (ratio=total intensity/total cell number). […]

The test system of assay [2] is persons with type 2 diabetes and nephropathy. The settings on record: in combination with an ACE inhibitor, ARB, or both; cited from earlier work.

The structures appear in SMILES notation.

As usually defined, the IC50 is the point on the concentration scale where inhibition reaches its midpoint. As for `CN[C@@H]1C[C@H]2O[C@@](C)([C@@H]1OC)n1c3ccccc3c3c4c(c5c6ccccc6n2c5c31)C(=O)NC4` [Staurosporin, reference compound], the IC50 in assay [1] was […].

With `CN(C)C[C@@H]1CCn2cc(c3ccccc32)C2=C(C(=O)NC2=O)c2cn(c3ccccc23)CCO1` [ruboxistaurin], in assay [2], the “effects on albuminuria and renal function” value was “favorable effects on albuminuria and renal function”.
